Experimental data as given in patent US10328135B2, “Method of obtaining cytolytic T cells by using mutant tumor epitopes” (priority 2010, dated 2019).

How the values were obtained:
Format in all cases: cell-based, human
[1] = system: MART-126-35-specific CTL clone M26-H1; experiment: Saturation mutagenesis APL screen: bead-based cross-presentation by immature dendritic cells, IFN-γ sandwich ELISA; settings: 200 μl bacterial cultures, 88 clones, CTL clone M26-H1, FIG. 2
CD-4+ cells = experiment: NY-ESO-1 APL cross-presented mini-gene products, IFN-γ ELISA, CD-4+ cells (FIG. 8A)
Experimental: FIG. 8A. Native and superagonist CTL determinants can be distinguished in bead-based cross presentation assay. Oligonucleotides encoding NY-ESO-1157-170 were cloned into and expressed by pQE40 expression vectors. The mini-gene products were isolated and “fed” to immature dendritic cells as described in the Examples. NY-ESO-1157-170-specific CTL clones were used to detect the presence of the cross-presented mini-gene products (NY-ESO-1157-170). Induced IFN-γ expression was determined by standard sandwich ELISA. Synthetic wild-type peptide was used a positive control. […] Results for CD-4+ cells are shown.
FIG. 8A and FIG. 8B show the ability of several NY-ES0-1APL to stimulate CD-4^| fractions (FIG. 8A) and PBMC (FIG. 8B).

[2] = system: T2 cells pulsed with 1 μM of MART-126-35; experiment: In vitro cytotoxicity assay (51Cr release) by polyclonal CTL lines generated with analog peptides; target T2 pulsed with MART-126-35 (M26)
Experimental: (§1) Isolated cells were replicated using 30 ng/ml anti-CD3 antibody (OKT3) and IL-2 at 50 U/ml in the presence of irradiated feeder PBMC and LCL for 2 weeks. IL-2 was replenished every 2-3 days.
(§2) Target cells were labeled with 100 μCi of ^51Cr and co-cultured with effector cells for 4 hours at 37° C. plus 5% CO2. […] Released ^51Cr was measured with a gamma scintillation counter and percent specific lysis was determined by using the formula: percent specific release=(experimental release-spontaneous release)/(maximum release-spontaneous release). […]
(§3) “ND” is not done. T2 is a TAP-deficient cell line that expresses peptide-unbound HLA-A2 molecules unless pulsed extracellularly. […] Numbers represent the percentage specific lysis obtained from each target. T375 is a HLA-A2 positive/MART-1 negative cell line.

[3] = system: T2 cells pulsed with NY-ESO-1157-165; experiment: In vitro cytotoxicity assay (51Cr release) by polyclonal CTL lines generated with analog peptides; target T2 pulsed with NY-ESO-1157-165 (negative control); settings: target T2 (pulsed with NYESO-1157-165)
Experimental: as §1, §2, §3

[4] = system: Mel 526 (HLA-A2+/MART-1+) melanoma cell line; experiment: In vitro cytotoxicity assay (51Cr release) by polyclonal CTL lines generated with analog peptides; target Mel 526; settings: target Mel526
Experimental: as §1, §2, §3

[5] = system: A375 (HLA-A2+/NY-ESO-1+) melanoma cell line; experiment: In vitro cytotoxicity assay (51Cr release) by polyclonal CTL lines generated with analog peptides; target A375
Experimental: as §1, §2, §3

[6] = CTL line from Healthy1, E/T 12.5
[7] = CTL line from MelPt-B, E/T 12.5
[8] = CTL line from MelPt-C, E/T 12.5
[9] = CTL line from MelPt-D, E/T 12.5
[10] = CTL line from MelPt-F, E/T 12.5

A27M: APL clones of MART-126-35 containing methionine residues at P2; previously described superagonist
IFN-γ expression in P2 library screen of MART-126-35 [1]: greater IFN-γ expression than wild type MART-126-35

F170W: NY-ESO-1157-170 APL F170W (SLLMWITQCFLPVW)
Stimulation of CD-4+ cells (CD-4+ cells): most effective

I162Q: NY-ESO-1157-170 APL I162Q (SLLMWQTQCFLPVF)
Stimulation of CD-4+ cells (CD-4+ cells): most effective

MART-126-35L33M (EAAGIGIMTV; UniProt Q16655 26-35, looked up, variant L33M)
Percentage Specific Lysis from polyclonal CTL lines generated with the indicated peptide [2, 6]: 38%
Percentage Specific Lysis from polyclonal CTL lines generated with the indicated peptide ([2]; CTL line from Healthy1, E/T 25): 49%
Percentage Specific Lysis from polyclonal CTL lines generated with the indicated peptide ([2]; CTL line from Healthy1, E/T 50): 57%
Percentage Specific Lysis from polyclonal CTL lines generated with the indicated peptide [2, 7]: 41%
Percentage Specific Lysis from polyclonal CTL lines generated with the indicated peptide ([2]; CTL line from MelPt-B, E/T 25): 52%
Percentage Specific Lysis from polyclonal CTL lines generated with the indicated peptide ([2]; CTL line from MelPt-B, E/T 50): 63%
Percentage Specific Lysis from polyclonal CTL lines generated with the indicated peptide [2, 8]: 76%
Percentage Specific Lysis from polyclonal CTL lines generated with the indicated peptide ([2]; CTL line from MelPt-C, E/T 25): 84%
Percentage Specific Lysis from polyclonal CTL lines generated with the indicated peptide ([2]; CTL line from MelPt-C, E/T 50): 91%
Percentage Specific Lysis from polyclonal CTL lines generated with the indicated peptide [2, 9]: 75%
Percentage Specific Lysis from polyclonal CTL lines generated with the indicated peptide ([2]; CTL line from MelPt-D, E/T 25): 84%
Percentage Specific Lysis from polyclonal CTL lines generated with the indicated peptide ([2]; CTL line from MelPt-D, E/T 50): 90%
Percentage Specific Lysis from polyclonal CTL lines generated with the indicated peptide [2, 10]: 65%
Percentage Specific Lysis from polyclonal CTL lines generated with the indicated peptide ([2]; CTL line from MelPt-F, E/T 25): 72%
Percentage Specific Lysis from polyclonal CTL lines generated with the indicated peptide ([2]; CTL line from MelPt-F, E/T 50): 70%
Percentage Specific Lysis from polyclonal CTL lines generated with the indicated peptide [3, 6]: 5%
Percentage Specific Lysis from polyclonal CTL lines generated with the indicated peptide ([3]; CTL line from Healthy1, E/T 25): 6%
Percentage Specific Lysis from polyclonal CTL lines generated with the indicated peptide ([3]; CTL line from Healthy1, E/T 50): 2%
Percentage Specific Lysis from polyclonal CTL lines generated with the indicated peptide [3, 7]: 4%
Percentage Specific Lysis from polyclonal CTL lines generated with the indicated peptide ([3]; CTL line from MelPt-B, E/T 25): 2%
Percentage Specific Lysis from polyclonal CTL lines generated with the indicated peptide ([3]; CTL line from MelPt-B, E/T 50): 2%
Percentage Specific Lysis from polyclonal CTL lines generated with the indicated peptide [3, 8]: 11%
Percentage Specific Lysis from polyclonal CTL lines generated with the indicated peptide ([3]; CTL line from MelPt-C, E/T 25): 12%
Percentage Specific Lysis from polyclonal CTL lines generated with the indicated peptide ([3]; CTL line from MelPt-C, E/T 50): 9%
Percentage Specific Lysis from polyclonal CTL lines generated with the indicated peptide [3, 9]: 8%
Percentage Specific Lysis from polyclonal CTL lines generated with the indicated peptide ([3]; CTL line from MelPt-D, E/T 25): 11%
Percentage Specific Lysis from polyclonal CTL lines generated with the indicated peptide ([3]; CTL line from MelPt-D, E/T 50): 14%
Percentage Specific Lysis from polyclonal CTL lines generated with the indicated peptide [3, 10]: 22%
Percentage Specific Lysis from polyclonal CTL lines generated with the indicated peptide ([3]; CTL line from MelPt-F, E/T 25): 21%
Percentage Specific Lysis from polyclonal CTL lines generated with the indicated peptide ([3]; CTL line from MelPt-F, E/T 50): 23%
Percentage Specific Lysis from polyclonal CTL lines generated with the indicated peptide [4, 6]: 44%
Percentage Specific Lysis from polyclonal CTL lines generated with the indicated peptide ([4]; CTL line from Healthy1, E/T 25): 57%
Percentage Specific Lysis from polyclonal CTL lines generated with the indicated peptide ([4]; CTL line from Healthy1, E/T 50): 65%
Percentage Specific Lysis from polyclonal CTL lines generated with the indicated peptide [4, 7]: 58%
Percentage Specific Lysis from polyclonal CTL lines generated with the indicated peptide ([4]; CTL line from MelPt-B, E/T 25): 70%
Percentage Specific Lysis from polyclonal CTL lines generated with the indicated peptide ([4]; CTL line from MelPt-B, E/T 50): 80%
Percentage Specific Lysis from polyclonal CTL lines generated with the indicated peptide [4, 8]: 45%
Percentage Specific Lysis from polyclonal CTL lines generated with the indicated peptide ([4]; CTL line from MelPt-C, E/T 25): 52%
Percentage Specific Lysis from polyclonal CTL lines generated with the indicated peptide ([4]; CTL line from MelPt-C, E/T 50): 58%
Percentage Specific Lysis from polyclonal CTL lines generated with the indicated peptide [4, 9]: 45%
Percentage Specific Lysis from polyclonal CTL lines generated with the indicated peptide ([4]; CTL line from MelPt-D, E/T 25): 54%
Percentage Specific Lysis from polyclonal CTL lines generated with the indicated peptide ([4]; CTL line from MelPt-D, E/T 50): 57%
Percentage Specific Lysis from polyclonal CTL lines generated with the indicated peptide [4, 10]: 38%
Percentage Specific Lysis from polyclonal CTL lines generated with the indicated peptide ([4]; CTL line from MelPt-F, E/T 25): 42%
Percentage Specific Lysis from polyclonal CTL lines generated with the indicated peptide ([4]; CTL line from MelPt-F, E/T 50): 44%
Percentage Specific Lysis from polyclonal CTL lines generated with the indicated peptide [5, 6]: 10%
Percentage Specific Lysis from polyclonal CTL lines generated with the indicated peptide ([5]; CTL line from Healthy1, E/T 25): 13%
Percentage Specific Lysis from polyclonal CTL lines generated with the indicated peptide ([5]; CTL line from Healthy1, E/T 50): 13%
Percentage Specific Lysis from polyclonal CTL lines generated with the indicated peptide [5, 7]: 9%
Percentage Specific Lysis from polyclonal CTL lines generated with the indicated peptide ([5]; CTL line from MelPt-B, E/T 25): 12%
Percentage Specific Lysis from polyclonal CTL lines generated with the indicated peptide ([5]; CTL line from MelPt-B, E/T 50): 13%
Percentage Specific Lysis from polyclonal CTL lines generated with the indicated peptide [5, 8]: 5%
Percentage Specific Lysis from polyclonal CTL lines generated with the indicated peptide ([5]; CTL line from MelPt-C, E/T 25): 2%
Percentage Specific Lysis from polyclonal CTL lines generated with the indicated peptide ([5]; CTL line from MelPt-C, E/T 50): 0%
Percentage Specific Lysis from polyclonal CTL lines generated with the indicated peptide [5, 9]: 6%
Percentage Specific Lysis from polyclonal CTL lines generated with the indicated peptide ([5]; CTL line from MelPt-D, E/T 25): 4%
Percentage Specific Lysis from polyclonal CTL lines generated with the indicated peptide ([5]; CTL line from MelPt-D, E/T 50): 2%
Percentage Specific Lysis from polyclonal CTL lines generated with the indicated peptide [5, 10]: 5%
Percentage Specific Lysis from polyclonal CTL lines generated with the indicated peptide ([5]; CTL line from MelPt-F, E/T 25): 3%
Percentage Specific Lysis from polyclonal CTL lines generated with the indicated peptide ([5]; CTL line from MelPt-F, E/T 50): 2%

Q164S: NY-ESO-1157-170 APL Q164S (SLLMWITSCFLPVF)
Stimulation of CD-4+ cells (CD-4+ cells): most effective
